Results taken from publication PMC7385619, “A triple action CDK4/6-PI3K-BET inhibitor with augmented cancer cell cytotoxicity” (Cell Discovery, 2020).
Several values for one entry are separate records, joined by “and”; a condition that tells them apart may be missing. Identical values can stand only once. Like-named read-outs stand apart in the source and are kept apart here.

Tests used:
Experiment in all cases: KINOMEscan assay (Eurofins DiscoverX)
Type in all cases: binding
kinome (kinase panel) [1] = molecular target: T1, kinome (kinase panel) (Homo sapiens, UniProt O00750); conditions: PIK3C2B; 1000 nM; read-out: Percent Control
T1 construct: purchased Eurofins DiscoverX

kinome (kinase panel) [2] = molecular target: T2, kinome (kinase panel) (Homo sapiens, UniProt O14733); conditions: MKK7 (Entrez MAP2K7); 1000 nM; read-out: Percent Control
T2 construct: purchased Eurofins DiscoverX

kinome (kinase panel) [3] = molecular target: T3, kinome (kinase panel) (Homo sapiens, UniProt O15530); conditions: PDPK1; 1000 nM; read-out: Percent Control
T3 construct: purchased Eurofins DiscoverX

kinome (kinase panel) [4] = molecular target: T4, kinome (kinase panel) (Homo sapiens, UniProt O60285); conditions: ARK5 (Entrez NUAK1); 1000 nM; read-out: Percent Control
T4 construct: purchased Eurofins DiscoverX

kinome (kinase panel) [5] = molecular target: T5, kinome (kinase panel) (Homo sapiens, UniProt O75747); conditions: PIK3C2G; 1000 nM; read-out: Percent Control
T5 construct: purchased Eurofins DiscoverX

kinome (kinase panel) [6] = molecular target: T6, kinome (kinase panel) (Homo sapiens, UniProt O94804); conditions: LOK (Entrez STK10); 1000 nM; read-out: Percent Control
T6 construct: purchased Eurofins DiscoverX

kinome (kinase panel) [7] = molecular target: T7, kinome (kinase panel) (Homo sapiens, UniProt P00519, F317L)
T7 construct: purchased Eurofins DiscoverX
T7 sequence (P00519 whole entry F317L): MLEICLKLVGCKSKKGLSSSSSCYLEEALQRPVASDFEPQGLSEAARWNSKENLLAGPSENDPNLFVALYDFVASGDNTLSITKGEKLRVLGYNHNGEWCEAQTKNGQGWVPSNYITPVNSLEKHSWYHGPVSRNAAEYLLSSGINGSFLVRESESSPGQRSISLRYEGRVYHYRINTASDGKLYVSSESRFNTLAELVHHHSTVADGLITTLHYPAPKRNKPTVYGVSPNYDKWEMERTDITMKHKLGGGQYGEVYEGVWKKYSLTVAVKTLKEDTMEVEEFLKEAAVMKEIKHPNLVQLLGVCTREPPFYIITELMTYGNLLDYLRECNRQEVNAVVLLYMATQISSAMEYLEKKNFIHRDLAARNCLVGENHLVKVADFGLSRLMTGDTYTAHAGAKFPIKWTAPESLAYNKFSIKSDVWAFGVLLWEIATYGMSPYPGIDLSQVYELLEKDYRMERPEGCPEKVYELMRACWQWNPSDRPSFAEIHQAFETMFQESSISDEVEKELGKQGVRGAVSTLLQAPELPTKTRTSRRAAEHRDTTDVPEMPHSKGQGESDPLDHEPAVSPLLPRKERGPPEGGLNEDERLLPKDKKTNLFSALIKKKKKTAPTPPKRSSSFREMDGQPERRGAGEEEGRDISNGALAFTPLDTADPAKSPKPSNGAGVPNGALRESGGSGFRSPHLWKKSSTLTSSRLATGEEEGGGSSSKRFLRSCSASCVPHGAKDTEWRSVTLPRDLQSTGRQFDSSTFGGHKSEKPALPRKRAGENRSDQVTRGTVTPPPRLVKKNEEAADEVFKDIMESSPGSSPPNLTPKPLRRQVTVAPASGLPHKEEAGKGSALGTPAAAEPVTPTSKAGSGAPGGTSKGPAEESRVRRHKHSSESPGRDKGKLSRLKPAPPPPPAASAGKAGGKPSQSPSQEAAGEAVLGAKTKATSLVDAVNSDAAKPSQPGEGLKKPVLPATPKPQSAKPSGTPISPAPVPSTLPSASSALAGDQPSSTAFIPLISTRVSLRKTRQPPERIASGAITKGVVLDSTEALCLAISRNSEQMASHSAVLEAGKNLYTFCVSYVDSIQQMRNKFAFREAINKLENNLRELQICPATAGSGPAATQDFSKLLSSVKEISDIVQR

kinome (kinase panel) [8] = molecular target: T8, kinome (kinase panel) (Homo sapiens, UniProt P00533, G719S); conditions: […]; 1000 nM; read-out: Percent Control
T8 construct: purchased Eurofins DiscoverX

kinome (kinase panel) [9] = molecular target: T9, kinome (kinase panel) (Homo sapiens, UniProt P04626); conditions: ERBB2; 1000 nM; read-out: Percent Control
T9 construct: purchased Eurofins DiscoverX

kinome (kinase panel) [10] = molecular target: T10, kinome (kinase panel) (Homo sapiens, UniProt P08069); conditions: IGF1R; 1000 nM; read-out: Percent Control
T10 construct: purchased Eurofins DiscoverX

kinome (kinase panel) [11] = molecular target: T11, kinome (kinase panel) (Homo sapiens, UniProt P10721, D816V); conditions: […]; 1000 nM; read-out: Percent Control
T11 construct: purchased Eurofins DiscoverX

kinome (kinase panel) [12] = molecular target: T12, kinome (kinase panel) (Homo sapiens, UniProt P15056); conditions: BRAF; 1000 nM; read-out: Percent Control
T12 construct: purchased Eurofins DiscoverX

kinome (kinase panel) [13] = molecular target: T13, kinome (kinase panel) (Homo sapiens, UniProt P22607, G697C); conditions: read-out: Percent Control
T13 construct: purchased Eurofins DiscoverX

kinome (kinase panel) [14] = molecular target: T14, kinome (kinase panel) (Homo sapiens, UniProt P30530); conditions: AXL; 1000 nM; read-out: Percent Control
T14 construct: purchased Eurofins DiscoverX

kinome (kinase panel) [15] = molecular target: T15, kinome (kinase panel) (Homo sapiens, UniProt P37023); conditions: ACVRL1; 1000 nM; read-out: Percent Control
T15 construct: purchased Eurofins DiscoverX

kinome (kinase panel) [16] = molecular target: T16, kinome (kinase panel) (Homo sapiens, UniProt P42336, C420R); conditions: read-out: Percent Control
T16 construct: purchased Eurofins DiscoverX

kinome (kinase panel) [17] = molecular target: T17, kinome (kinase panel) (Homo sapiens, UniProt P51956); conditions: NEK3; 1000 nM; read-out: Percent Control
T17 construct: purchased Eurofins DiscoverX

kinome (kinase panel) [18] = molecular target: T18, kinome (kinase panel) (Homo sapiens, UniProt P52333); conditions: JAK3(JH1domain-catalytic); 1000 nM; read-out: Percent Control
T18 construct: purchased Eurofins DiscoverX
T18 sequence (P52333 whole entry): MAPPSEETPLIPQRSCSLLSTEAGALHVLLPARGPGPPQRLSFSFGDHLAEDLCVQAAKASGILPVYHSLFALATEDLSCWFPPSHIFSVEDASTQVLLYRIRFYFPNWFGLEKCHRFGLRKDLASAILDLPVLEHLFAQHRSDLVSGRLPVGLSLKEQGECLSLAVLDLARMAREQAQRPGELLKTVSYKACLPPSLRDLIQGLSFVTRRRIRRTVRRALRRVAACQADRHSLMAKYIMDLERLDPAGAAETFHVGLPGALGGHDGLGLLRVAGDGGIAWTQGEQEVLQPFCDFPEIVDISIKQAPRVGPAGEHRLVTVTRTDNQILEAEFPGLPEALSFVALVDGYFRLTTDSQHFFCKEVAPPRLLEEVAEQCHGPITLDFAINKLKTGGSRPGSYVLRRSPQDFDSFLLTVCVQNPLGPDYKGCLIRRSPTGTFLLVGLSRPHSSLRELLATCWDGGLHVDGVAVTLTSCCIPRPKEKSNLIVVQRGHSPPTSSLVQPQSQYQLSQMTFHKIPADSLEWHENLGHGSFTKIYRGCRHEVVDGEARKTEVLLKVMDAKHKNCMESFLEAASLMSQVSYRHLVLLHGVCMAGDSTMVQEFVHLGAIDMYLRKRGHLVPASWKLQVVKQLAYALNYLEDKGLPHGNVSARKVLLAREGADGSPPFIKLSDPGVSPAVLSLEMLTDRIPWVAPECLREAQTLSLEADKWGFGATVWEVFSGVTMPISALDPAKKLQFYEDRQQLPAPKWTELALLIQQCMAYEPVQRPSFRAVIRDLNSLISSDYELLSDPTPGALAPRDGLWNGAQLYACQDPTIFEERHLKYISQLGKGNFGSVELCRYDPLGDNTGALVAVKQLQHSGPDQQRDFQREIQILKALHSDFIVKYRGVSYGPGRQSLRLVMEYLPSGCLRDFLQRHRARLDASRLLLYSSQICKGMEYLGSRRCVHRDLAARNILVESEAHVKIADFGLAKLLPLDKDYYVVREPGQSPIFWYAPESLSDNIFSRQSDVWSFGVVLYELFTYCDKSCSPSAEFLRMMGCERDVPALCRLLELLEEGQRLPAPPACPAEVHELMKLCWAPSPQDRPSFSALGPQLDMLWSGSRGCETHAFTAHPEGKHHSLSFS

kinome (kinase panel) [19] = molecular target: T19, kinome (kinase panel) (Homo sapiens, UniProt P53667); conditions: LIMK1; 1000 nM; read-out: Percent Control
T19 construct: purchased Eurofins DiscoverX

kinome (kinase panel) [20] = molecular target: T20, kinome (kinase panel) (Homo sapiens, UniProt P78356); conditions: PIP5K2B (Entrez PIP4K2B); 1000 nM; read-out: Percent Control
T20 construct: purchased Eurofins DiscoverX

kinome (kinase panel) [21] = molecular target: T21, kinome (kinase panel) (Homo sapiens, UniProt Q13546); conditions: RIPK1; 1000 nM; read-out: Percent Control
T21 construct: purchased Eurofins DiscoverX

kinome (kinase panel) [22] = molecular target: T22, kinome (kinase panel) (Homo sapiens, UniProt Q15349); conditions: 1000 nM, read-out: Percent Control
T22 construct: purchased Eurofins DiscoverX
T22 sequence (Q15349 whole entry): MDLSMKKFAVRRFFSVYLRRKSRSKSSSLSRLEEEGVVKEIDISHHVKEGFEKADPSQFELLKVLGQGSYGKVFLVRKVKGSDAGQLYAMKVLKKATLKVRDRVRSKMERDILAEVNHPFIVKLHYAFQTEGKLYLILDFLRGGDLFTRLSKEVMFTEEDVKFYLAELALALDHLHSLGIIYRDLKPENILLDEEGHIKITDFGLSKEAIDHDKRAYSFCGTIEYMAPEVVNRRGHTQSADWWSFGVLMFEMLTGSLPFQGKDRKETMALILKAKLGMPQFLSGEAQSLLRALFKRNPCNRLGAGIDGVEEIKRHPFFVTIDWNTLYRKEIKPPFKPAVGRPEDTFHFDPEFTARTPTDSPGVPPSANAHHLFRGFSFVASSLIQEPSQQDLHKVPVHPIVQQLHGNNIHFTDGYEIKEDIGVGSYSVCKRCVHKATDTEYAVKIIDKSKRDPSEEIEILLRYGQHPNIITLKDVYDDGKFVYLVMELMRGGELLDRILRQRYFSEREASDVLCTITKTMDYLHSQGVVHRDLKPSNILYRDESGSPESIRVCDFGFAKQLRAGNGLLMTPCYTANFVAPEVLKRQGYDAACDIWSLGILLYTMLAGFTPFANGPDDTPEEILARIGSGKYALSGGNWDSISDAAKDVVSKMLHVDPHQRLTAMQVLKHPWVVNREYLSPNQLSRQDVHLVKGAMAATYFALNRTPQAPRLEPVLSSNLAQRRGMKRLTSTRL

kinome (kinase panel) [23] = molecular target: T23, kinome (kinase panel) (Homo sapiens, UniProt Q16659); conditions: ERK3 (Entrez MAPK6); 1000 nM; read-out: Percent Control
T23 construct: purchased Eurofins DiscoverX

kinome (kinase panel) [24] = molecular target: T24, kinome (kinase panel) (Homo sapiens, UniProt Q86Y07); conditions: VRK2; 1000 nM; read-out: Percent Control
T24 construct: purchased Eurofins DiscoverX

kinome (kinase panel) [25] = molecular target: T25, kinome (kinase panel) (Homo sapiens, UniProt Q8IVH8); conditions: MAP4K3; 1000 nM; read-out: Percent Control
T25 construct: purchased Eurofins DiscoverX

kinome (kinase panel) [26] = molecular target: T26, kinome (kinase panel) (Homo sapiens, UniProt Q92772); conditions: CDKL2; 1000 nM; read-out: Percent Control
T26 construct: purchased Eurofins DiscoverX
T26 sequence (Q92772 whole entry): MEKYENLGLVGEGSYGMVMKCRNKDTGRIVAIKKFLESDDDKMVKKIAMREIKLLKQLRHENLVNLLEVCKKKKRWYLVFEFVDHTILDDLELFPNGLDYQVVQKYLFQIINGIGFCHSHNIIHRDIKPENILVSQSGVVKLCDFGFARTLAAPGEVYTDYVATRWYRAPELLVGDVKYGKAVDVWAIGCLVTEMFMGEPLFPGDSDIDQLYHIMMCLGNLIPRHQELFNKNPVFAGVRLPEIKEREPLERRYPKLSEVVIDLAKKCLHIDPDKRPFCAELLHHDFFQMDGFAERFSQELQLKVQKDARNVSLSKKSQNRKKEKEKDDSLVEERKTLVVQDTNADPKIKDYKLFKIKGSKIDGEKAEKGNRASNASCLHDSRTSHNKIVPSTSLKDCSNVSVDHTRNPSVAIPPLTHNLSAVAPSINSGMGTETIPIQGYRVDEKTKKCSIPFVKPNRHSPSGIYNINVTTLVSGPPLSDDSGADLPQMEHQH

kinome (kinase panel) [27] = molecular target: T27, kinome (kinase panel) (Homo sapiens, UniProt Q9BXA7); conditions: TSSK1B; 1000 nM; read-out: Percent Control
T27 construct: purchased Eurofins DiscoverX

kinome (kinase panel) [28] = molecular target: T28, kinome (kinase panel) (Homo sapiens, UniProt Q9H4B4); conditions: PLK3; 1000 nM; read-out: Percent Control
T28 construct: purchased Eurofins DiscoverX
T28 sequence (Q9H4B4 whole entry): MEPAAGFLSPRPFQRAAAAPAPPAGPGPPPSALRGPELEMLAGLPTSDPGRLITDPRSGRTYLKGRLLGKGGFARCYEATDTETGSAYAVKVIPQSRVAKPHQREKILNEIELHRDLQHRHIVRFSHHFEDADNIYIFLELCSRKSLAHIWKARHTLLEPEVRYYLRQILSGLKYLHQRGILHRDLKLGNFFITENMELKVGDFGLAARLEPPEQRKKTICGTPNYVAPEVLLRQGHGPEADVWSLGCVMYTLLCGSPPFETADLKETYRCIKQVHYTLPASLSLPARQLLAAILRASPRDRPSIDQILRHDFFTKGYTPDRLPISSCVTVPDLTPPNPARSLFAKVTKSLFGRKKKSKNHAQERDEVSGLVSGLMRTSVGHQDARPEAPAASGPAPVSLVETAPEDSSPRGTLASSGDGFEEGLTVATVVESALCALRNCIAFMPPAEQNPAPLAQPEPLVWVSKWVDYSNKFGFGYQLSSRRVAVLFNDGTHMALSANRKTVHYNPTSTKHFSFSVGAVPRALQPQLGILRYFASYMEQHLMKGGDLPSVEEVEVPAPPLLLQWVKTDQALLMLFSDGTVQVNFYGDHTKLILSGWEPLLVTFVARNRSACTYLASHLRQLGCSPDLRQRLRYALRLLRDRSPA

kinome (kinase panel) [29] = molecular target: T29, kinome (kinase panel) (Homo sapiens, UniProt Q9P286); conditions: PAK7; 1000 nM; read-out: Percent Control
T29 construct: purchased Eurofins DiscoverX
T29 sequence (Q9P286 whole entry): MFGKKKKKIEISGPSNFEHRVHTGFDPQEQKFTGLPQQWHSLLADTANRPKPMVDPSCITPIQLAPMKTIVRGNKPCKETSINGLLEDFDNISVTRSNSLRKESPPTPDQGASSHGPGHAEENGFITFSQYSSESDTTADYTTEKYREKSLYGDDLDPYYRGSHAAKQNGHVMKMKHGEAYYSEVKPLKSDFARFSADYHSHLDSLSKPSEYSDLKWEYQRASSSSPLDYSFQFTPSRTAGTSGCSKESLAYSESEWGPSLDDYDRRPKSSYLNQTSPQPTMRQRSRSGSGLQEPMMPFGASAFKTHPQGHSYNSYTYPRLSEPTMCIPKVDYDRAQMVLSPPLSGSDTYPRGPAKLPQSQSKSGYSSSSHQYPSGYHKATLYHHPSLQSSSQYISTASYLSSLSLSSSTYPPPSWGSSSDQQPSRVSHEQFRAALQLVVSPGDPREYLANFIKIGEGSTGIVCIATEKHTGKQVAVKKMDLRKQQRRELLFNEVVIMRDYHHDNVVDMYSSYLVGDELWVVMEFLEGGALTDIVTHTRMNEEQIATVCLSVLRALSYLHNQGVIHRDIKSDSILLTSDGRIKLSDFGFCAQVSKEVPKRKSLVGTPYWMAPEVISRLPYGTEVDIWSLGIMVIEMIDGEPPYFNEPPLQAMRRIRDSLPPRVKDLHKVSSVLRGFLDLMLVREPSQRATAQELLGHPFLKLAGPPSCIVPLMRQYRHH

kinome (kinase panel) [30] = molecular target: T30, kinome (kinase panel) (Homo sapiens, UniProt Q9Y3S1); conditions: WNK2; 1000 nM; read-out: Percent Control
T30 construct: purchased Eurofins DiscoverX

kinome (kinase panel) [31] = molecular target: T31, kinome (kinase panel) (Homo sapiens, UniProt Q9Y5S2); conditions: MRCKB (Entrez CDC42BPB); 1000 nM; read-out: Percent Control
T31 construct: purchased Eurofins DiscoverX

kinome (kinase panel) [32] = molecular target: T32, kinome (kinase panel) (Plasmodium falciparum, UniProt P62344); conditions: PFCDPK1(P.falciparum) (Entrez CDPK1); 1000 nM; read-out: Percent Control
T32 construct: purchased Eurofins DiscoverX

With `CN(C)C(=O)c1cc2cnc(Nc3ccc(-c4csc5c(=O)cc(N6CCOCC6)oc45)cc3)nc2n1C1CCCC1` [SRX3177] the remaining binding at 1 µM (kinome (kinase panel) [1]) was 86%, the remaining binding at 1 µM (kinome (kinase panel) [2]) was 46% and the remaining binding at 1 µM (kinome (kinase panel) [3]) was 98%. It also gave a remaining binding at 1 µM (kinome (kinase panel) [4]) of 86%, a remaining binding at 1 µM (kinome (kinase panel) [5]) of 100% and a remaining binding at 1 µM (kinome (kinase panel) [6]) of 100%. For the same molecule, the “Percent Control” value (kinome (kinase panel) [7]) was 89 and 56, the remaining binding at 1 µM (kinome (kinase panel) [8]) was 78% and the remaining binding at 1 µM (kinome (kinase panel) [9]) was 76%. It also gave a remaining binding at 1 µM (kinome (kinase panel) [10]) of 100%, a remaining binding at 1 µM (kinome (kinase panel) [11]) of 23% and a remaining binding at 1 µM (kinome (kinase panel) [12]) of 79%. For the same molecule, the remaining binding at 1 µM (kinome (kinase panel) [13]) was 89%, the remaining binding at 1 µM (kinome (kinase panel) [14]) was 89% and the remaining binding at 1 µM (kinome (kinase panel) [15]) was 100%. It also gave a remaining binding at 1 µM (kinome (kinase panel) [16]) of 81%, a remaining binding at 1 µM (kinome (kinase panel) [17]) of 90% and a remaining binding at 1 µM (kinome (kinase panel) [18]) of 13%. The remaining binding at 1 µM (kinome (kinase panel) [19]) was 85%, the remaining binding at 1 µM (kinome (kinase panel) [20]) was 48% and the remaining binding at 1 µM (kinome (kinase panel) [21]) was 96%. The remaining binding at 1 µM (kinome (kinase panel) [22]; RSK3(Kin.Dom.1-N-terminal) (RPS6KA2)) was 80%, the remaining binding at 1 µM (kinome (kinase panel) [22]; RSK3(Kin.Dom.2-C-terminal) (RPS6KA2)) was 74% and the remaining binding at 1 µM (kinome (kinase panel) [23]) was 100%. It also gave a remaining binding at 1 µM (kinome (kinase panel) [24]) of 21%, a remaining binding at 1 µM (kinome (kinase panel) [25]) of 100% and a remaining binding at 1 µM (kinome (kinase panel) [26]) of 97%. For the same molecule, the remaining binding at 1 µM (kinome (kinase panel) [27]) was 90%, the remaining binding at 1 µM (kinome (kinase panel) [28]) was 79% and the remaining binding at 1 µM (kinome (kinase panel) [29]) was 89%. It also gave a remaining binding at 1 µM (kinome (kinase panel) [30]) of 77%, a remaining binding at 1 µM (kinome (kinase panel) [31]) of 96% and a remaining binding at 1 µM (kinome (kinase panel) [32]) of 71%.
